“Also recorded” adds a separate entry of the source. Where a SMILES comes first, the peptide text is derived from it. Where no end group is shown, it is not given here. [ ]: non-standard residue; d: D form.
Assays:
FPR = biological target: T1, FPR (Homo sapiens, UniProt P21462); assay: Akt phosphorylation in FPR-expressing RBL-2H3 cells (immunoblot); format: cell-based; conditions: 10 μM peptides 2 min (WKYMVm time course 1 μM)
T1 construct: expressed in transfected cells; host or cells: RBL-2H3 (rat basophilic leukemia) cells, G418-selected
T1 sequence (P21462 1-350): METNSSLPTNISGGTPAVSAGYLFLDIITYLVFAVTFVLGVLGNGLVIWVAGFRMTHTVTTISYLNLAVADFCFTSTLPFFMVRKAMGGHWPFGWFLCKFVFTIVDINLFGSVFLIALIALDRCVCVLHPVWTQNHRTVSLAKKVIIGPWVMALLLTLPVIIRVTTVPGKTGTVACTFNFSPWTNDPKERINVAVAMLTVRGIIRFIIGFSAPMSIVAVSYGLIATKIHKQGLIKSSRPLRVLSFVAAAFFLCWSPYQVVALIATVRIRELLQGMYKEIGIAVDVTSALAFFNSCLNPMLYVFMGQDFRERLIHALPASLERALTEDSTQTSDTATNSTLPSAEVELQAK
Protocol: It is well known that activation of chemoattractant receptors induces Akt activation via PI3K (19). Stimulation of cells with the peptides, electrophoresis and immunoblot analysis were performed according to the same method as in Example 5.
FPR- or FPRL1-expressing RBL-2H3 cells were stimulated with 1 μM WKYMVm for various periods of time (FIG. 4A). Two cells were preincubated with a vehicle or 100 ng/ml of PTX (24 hr), 50 μM of LY294002 (15 min), 5 μM of GFX (15 min), 10 μM BAPTA/AM (60min), or 50 μM PD98059 (60 min) prior to treatment with 1 μM of WKYMVm (FIG. 4B). FPR- and FPRL1-expressing RBL2H3 cells were stimulated with 10 μM of WKYMVm and the present peptides for 2 min or 5 min, respectively (FIG. 4C). Each sample (30 μg of protein) was subjected to 10% SDS-PAGE and phosphorylated Akt was determined by immunoblot analysis with an anti-phospho-Akt antibody. A western blot analysis with an anti-Akt antibody was performed to confirm that the same amounts of samples were used for the experiments. The results are shown FIGS. 4A to 4C. Results of FIGS. 4A to 4C are the representative of 3 independent experiments.

FPRL1 [1] = biological target: T2, FPRL1 (Homo sapiens, UniProt P25090); assay: Exocytosis: β-hexosaminidase secretion in FPRL1-expressing RBL-2H3 cells; format: cell-based; conditions: for granule secretion / β-hexosaminidase release (words): FPRL1 cells, 10 μM of each peptide (WKYMVm also various concentrations)
T2 construct: expressed in transfected cells; host or cells: RBL-2H3 (rat basophilic leukemia) cells, G418-selected
T2 sequence (P25090 1-351): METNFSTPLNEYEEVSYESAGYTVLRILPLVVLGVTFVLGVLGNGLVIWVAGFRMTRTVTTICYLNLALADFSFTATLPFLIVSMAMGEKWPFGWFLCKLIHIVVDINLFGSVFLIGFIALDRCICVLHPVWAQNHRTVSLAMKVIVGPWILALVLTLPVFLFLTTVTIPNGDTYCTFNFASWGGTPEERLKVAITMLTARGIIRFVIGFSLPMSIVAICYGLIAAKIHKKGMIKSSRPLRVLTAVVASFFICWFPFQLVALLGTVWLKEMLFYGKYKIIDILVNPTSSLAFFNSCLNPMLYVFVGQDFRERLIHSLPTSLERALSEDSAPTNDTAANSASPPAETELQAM
Protocol: Granule secretion is one of the most important function of mast cells (20). The effect of WKYMVm on granule secretion was checked by measuring β-hexosaminidase secretion as described above (18). Briefly, RBL-2H3 cells (2×10^5/well) expressing FPR or FPRL1 were cultured overnight in a 24-well tissue culture plate. The cells were washed twice with Tyrode's buffer (137 mM NaCl, 12 mM NaHCO3, 5.6 mM glucose, 2.7 mM KCl, 1 mM CaCl2, 0.5 mM MgCl2, 0.4 mM NaH2PO4, 0.1g/100 ml BSA, and 25 mM HEPES, pH 7.4) and stimulated with each peptide. Various concentrations of WKYMVm were treated in FPR- or FPRL1-expressing RBL-2H3 cells (FIG. 5A). 1 μM of WKYMVm was used to stimulate two cell lines in the absence or presence of 10 μM BAPTA/AM (FIG. 5B). The reaction was terminated 20 min after stimulation by placing the plate on ice. Secretion of β-hexosaminidase into the medium was determined by incubating 50 μl of supernatant or cell lysate with 25 μl of 5 mM p-nitrophenyl-N-acetyl-β-D-glucosamide in 0.1 M sodium citrate buffer (pH 3.8) at 37° C. for 2 hr. At the end of the incubation, 50 μl of 0.4 M Na2CO3 were added. Absorbance was monitored at 405 nm. Data are means ±S.E. of a single representative of three experiments performed in triplicate. Values (means ±S.E.) were expressed as a percent of total β-hexosaminidase present in the cells.
10 μM of each peptide was treated in FPR- (FIG. 6A) or FPRL1-expressing RBL-2H3 cells (FIG. 6B). The peptide-induced secretion of β-hexosaminidase was determined as above. Data are means ±S.E. of a single representative of three experiments performed in triplicate.

FPRL1 [2] = biological target: T2, FPRL1; assay: Displacement of 125I-labeled WKYMVm binding to FPRL1 (FPRL1-expressing RBL-2H3 cells); conditions: FIG. 2B
Protocol: From the finding that some of the peptides (WKGMVm (SEQ ID NO: 1), WKRMVm (SEQ ID NO: 11), D-Met^6 substituted peptides) could not induce a cytosolic calcium increase, it was checked whether the peptides can bind to FPR or not. Displacement of ^125I-labeled WKYMVm binding to FPR or FPRL1 by the peptides was monitored. FPR-expressing RBL-2H3 cells were incubated with [^125I] WKYMVm in the absence or presence of increasing amounts of unlabeled WKYMVm or the peptides of SEQ ID NOs: 1 to 24.
A ligand binding analysis was performed as modified from the previous report (16). The radioiodinated WKYMVm (^125I-labeled) was purchased from NEN Lifesciences (Boston, Mass.). Briefly, FPR- or FPRL1-expressing RBL-2H3 cells were seeded into 1×10^5 cells per well of a 24-well plate and cultured overnight. After blocking the cells with a blocking buffer (33 mM HEPES, pH 7.5, 0.1% BSA in RPMI) for 2 hr, a single concentration of ^125I-labeled WKYMVm was added to cells with a binding buffer (PBS containing 0.1% BSA) in the absence or presence of 50 μM unlabelled peptides and incubated for 3 hr at 4° C. with continuous shaking. Then the samples were washed 5 times with ice-cold binding buffer, and 200 μl of lysis buffer (20 mM Tris, pH 7.5, 1% Triton X-100) was added to each well. After 20 min of lysis at room temperature, the lysates were collected. Bound ^125I-labeled WKYMVm was measured for radioactivity for a γ-ray counter.

Compound | Akt phosphorylation (FPR) | granule secretion / β-hexosaminidase release (words) (FPRL1 [1]) | inhibition of [^125I] WKYMVm binding (FPRL1 [2]) | concentration showing maximal β-hexosaminidase release (FPRL1 [1]; FPRL1-expressing RBL-2H3 cells) | granule secretion / β-hexosaminidase release (words) (FPRL1 [1]; listed as WKYMVm) | granule secretion / β-hexosaminidase release (words) (FPRL1 [1]; listed as wkymvm)
CSCC[C@H](NC(=O)[C@H](CCCNC(=N)N)NC(=O)[C@H](CCCCN)NC(=O)[C@@H](N)Cc1c[nH]c2ccccc12)C(=O)N[C@H](C(=O)N[C@H](CCSC)C(N)=O)C(C)C [WKRMVm-NH2, Trp-Lys-Arg-Met-Val-D-Met-NH2] (H-WKRMV[dM]-NH2; N-terminus assumed) | caused Akt phosphorylation | stimulated granule secretion | inhibited binding of [^125I] WKYMVm in a concentration-dependent manner | – | – | –
CSCC[C@H](NC(=O)[C@H](Cc1ccc(O)cc1)NC(=O)[C@H](CCCCN)NC(=O)[C@@H](N)Cc1c[nH]c2ccccc12)C(=O)N[C@H](C(=O)N[C@H](CCSC)C(N)=O)C(C)C [WKYMVm-NH2, Trp-Lys-Tyr-Met-Val-D-Met-NH2, reference compound] | caused Akt phosphorylation | – | inhibited binding of [^125I] WKYMVm in a concentration-dependent manner | 10 nM | caused β-hexosaminidase release in a concentration-dependent manner; also recorded: stimulated granule secretion | but not fMLF or wkymvm, stimulated granule secretion

More lines, main results first:

Akt phosphorylation (FPR) | granule secretion / β-hexosaminidase release (words) (FPRL1 [1]) | Compound | inhibition of [^125I] WKYMVm binding (FPRL1 [2]) | concentration showing maximal β-hexosaminidase release (FPRL1 [1]; FPRL1-expressing RBL-2H3 cells) | granule secretion / β-hexosaminidase release (words) (FPRL1 [1]; listed as WKYMVm) | granule secretion / β-hexosaminidase release (words) (FPRL1 [1]; listed as wkymvm)
caused Akt phosphorylation | stimulated granule secretion | WKYMVE-NH2 [WKYMVE-NH2, Trp-Lys-Tyr-Met-Val-Glu-NH2] | – | – | – | –
caused Akt phosphorylation | stimulated granule secretion | WKYMVR-NH2 [WKYMVR-NH2, Trp-Lys-Tyr-Met-Val-Arg-NH2] | – | – | – | –
caused Akt phosphorylation | stimulated granule secretion | CSCC[C@H](NC(=O)CNC(=O)[C@H](CCCCN)NC(=O)[C@@H](N)Cc1c[nH]c2ccccc12)C(=O)N[C@H](C(=O)N[C@H](CCSC)C(N)=O)C(C)C [WKGMVm-NH2, Trp-Lys-Gly-Met-Val-D-Met-NH2] (H-WKGMV[dM]-NH2; N-terminus assumed) | inhibited binding of [^125I] WKYMVm in a concentration-dependent manner | – | – | –
